Experiments:
Mayaro virus (MAYV) [1] = format: cell-based, Mayaro virus (ATCC VR 66, strain TR 4675); settings: Vero cells infected with MAYV (MOI 1) pre-treated 1 h with compound at its CC50-based concentration or 500 μM; 48 h; MTT; infected control 0%, uninfected 100%
Experimental: Vero cells (ATCC CCL-81) were used in all in vitro assays. Cells were cultured in DMEM medium supplemented with 2% fetal bovine serum (FBS), penicillin, and streptomycin, and incubated at a constant temperature of 37 °C under a controlled atmosphere of 5% CO2. Mayaro virus (ATCC VR 66, strain TR 4675) was initially propagated in C6/36 cells cultured in L-15 medium supplemented with 2% FBS, incubated at 28 °C. For viral titer determination, Vero cells (10^5 cells/well) were seeded in 24-well plates and cultured for approximately 24 h to achieve 80% confluence. Subsequently, the culture medium was replaced with 10-fold serial dilutions of the viral aliquot. The plate was maintained under constant agitation for 1 h to facilitate viral adsorption. The medium was then replaced with a semisolid medium (incomplete DMEM and 1% carboxymethylcellulose at a 2:1 ratio). Plates were incubated for 48 h under the aforementioned conditions, and cytopathic effects were monitored. After this period, cells were fixed with 10% formaldehyde and stained with 5% crystal violet solution for plaque counting. The mean number of plaques was used to determine the number of plaque-forming units (PFU), and the viral titer was expressed as PFU/mL.
To evaluate the antiviral potential of the molecules under study, an MTT (3-(4,5-dimethylthiazol-2-yl)-2,5-diphenyltetrazolium bromide) reduction assay was employed. Vero cells were seeded in 96-well plates (10^4 cells/well) and cultured until reaching approximately 80% confluence. […] For compounds with undetermined CC50 values, a concentration of 500 μM (the highest concentration tested in the previous study) was used. After incubation, the viral suspension was removed, DMEM medium was added, and cells were incubated for 48 h at 37 °C under a 5% CO2 atmosphere. Cell viability was determined by absorbance reading at 540 nm after solubilization of formazan crystals with DMSO, with the positive control (Vero cells infected with MAYV) defined as 0% cell viability and the negative control (uninfected Vero cells) defined as 100% cell viability. The compound providing the greatest cellular protection was selected for subsequent assays.

Vero cells = system: Vero cells; design: method as in previous study of our group; settings: ref previous study of our group; cited from earlier work
Mayaro virus (MAYV) [2] = experiment: Post-treatment assay (plaque reduction); format: cell-based, Mayaro virus (ATCC VR 66, strain TR 4675); settings: Vero cells treated after MAYV infection, any tested concentration
Experimental: To determine whether the compound acts after viral infection, Vero cells cultured in 24-well plates (10^5 cells/well) were initially infected with 100 μL of MAYV (100 PFU) and incubated under constant agitation for 1 h. The viral suspension was removed and replaced with 100 μL of the compound at different concentrations, followed by incubation for 3 h at 37 °C with periodic agitation. Subsequently, the medium was replaced with semisolid medium (DMEM + 1% carboxymethylcellulose). After 48 h of incubation at 37 °C and 5% CO2, the cells were fixed with 10% formaldehyde and stained with 5% crystal violet for plaque counting. For the negative control, DMEM was used, and for the positive control, 100 PFU of MAYV (untreated).

Mayaro virus (MAYV) [3] = experiment: Adsorption inhibition assay (plaque reduction); format: cell-based, Mayaro virus (ATCC VR 66, strain TR 4675); settings: 4 °C for 2 h, Vero cells, read-out: Decrease in the number of lysis plaques (adsorption inhibition)
Experimental: To assess whether the compound interferes with the viral adsorption step, 24-well plates (10^5 cells/well) were cooled at 4 °C for 30 min. The culture medium was removed, and cells were washed with cold PBS, followed by the addition of 100 μL of a solution containing MAYV (100 PFU) and different concentrations of the compound. Cells were incubated at 4 °C for 2 h and subsequently washed with cold citrate buffer (0.1 M citric acid and 0.1 M sodium citrate) and PBS. Semisolid medium (DMEM + 1% carboxymethylcellulose) was then added, and plates were incubated at 37 °C for 48 h. Cells were fixed and stained for plaque counting as previously described. DMEM was used as the negative control, and 100 PFU of MAYV served as the positive control (untreated).

Mayaro virus (MAYV) [4] = experiment: Pretreatment assay (plaque reduction); format: cell-based, Mayaro virus (ATCC VR 66, strain TR 4675); settings: Vero cells pretreated 3 h with different concentrations, then infected
Experimental: To determine whether the compound exerts a protective effect on cells prior to viral infection, Vero cells cultured in 24-well plates (10^5 cells/well) were treated for 3 h at 37 °C with 100 μL of the compound at different concentrations, with periodic agitation. Subsequently, the medium was replaced with 100 μL of a solution containing MAYV (100 PFU), and the plates were incubated under constant agitation for 1 h. The viral suspension was then replaced with a semisolid medium (DMEM + 1% carboxymethylcellulose), and the plates were incubated for 48 h at 37 °C under a 5% CO2 atmosphere. Cells were fixed with 10% formaldehyde and stained with 5% crystal violet solution for plaque counting. DMEM was used as the negative control, and 100 PFU of MAYV was used as the positive control (untreated).

Mayaro virus (MAYV) [5] = experiment: Virucidal assay (plaque reduction); format: cell-based, Mayaro virus (ATCC VR 66, strain TR 4675); settings: Vero cells
Experimental: To determine the action of the molecule on viral particles, Vero cells cultured in 24-well plates (10^5 cells/well) at 80% confluence were infected with MAYV (100 PFU/well) previously incubated for 1 h with different concentrations of the compound at 37 °C (100 μL/well). Plates were maintained under agitation for 1 h, and afterward, the viral suspension was replaced with 1 mL of semisolid medium (DMEM + 1% carboxymethylcellulose). Plates were incubated for 48 h at 37 °C and 5% CO2 and subsequently fixed with 10% formaldehyde followed by staining with 5% crystal violet solution for plaque counting. DMEM was used as the negative control, and 100 PFU of untreated MAYV was used as the positive control.

Mayaro virus (MAYV) [6] = experiment: Internalization inhibition assay (plaque reduction); format: cell-based, Mayaro virus (ATCC VR 66, strain TR 4675); settings: concentrations between 500 μM and 62.5 μM; Vero cells
Experimental: To evaluate whether the compound affects the internalization step, 24-well plates (10^5 cells/well) were cooled at 4 °C for 30 min. The culture medium was removed, and cells were incubated with MAYV (100 PFU/well) at 4 °C for 2 h. Cells were washed with cold PBS, and 1 mL of DMEM was added followed by incubation for 5 min at 37 °C. Subsequently, different concentrations of the compound were added and incubated for 1 h at 37 °C. Cells were then washed with cold PBS and citrate buffer. Finally, semisolid medium (DMEM + 1% carboxymethylcellulose) was added, and plates were incubated at 37 °C for 48 h. Cells were fixed and stained for plaque counting. DMEM was used as the negative control, and 100 PFU of MAYV was used as the positive control (untreated).

MAYV = system: MAYV; design: method as in Langedries et al.; settings: Vero cells; ref Langedries et al.; cited from earlier work

**Q.** What does the source list for `Cc1ccc(C(C)C)cc1OCC(=O)Nc1ccccc1Cl` [Compound 1]?
**A.** Antiviral screening (cell viability %) (Mayaro virus (MAYV) [1]): 62.5%; CC50 (Vero cells): 200 µM

**Q.** Which “Antiviral screening (cell viability %)” value (Mayaro virus (MAYV) [1]) does the source give for `Cc1ccc(C(C)C)cc1OCC(=O)Nc1ccc(Cl)cc1` [Compound 3] here?
**A.** The value was 0%.

**Q.** What about the CC50 (Vero cells) of the same compound?
**A.** The CC50 was 449 µM.

**Q.** Which results are given for `Cc1ccc(C(C)C)cc1OCC(=O)Nc1ccccc1Br` [Compound 4]?
**A.** Antiviral screening (cell viability %) (Mayaro virus (MAYV) [1]): 0%; CC50 (Vero cells): 372 µM

**Q.** What does the source list for `Cc1ccc(C(C)C)cc1OCC(=O)Nc1cccc(Br)c1` [Compound 5]?
**A.** Antiviral screening (cell viability %) (Mayaro virus (MAYV) [1]): 50.0%; CC50 (Vero cells): > 500 µM

**Q.** Which “Antiviral screening (cell viability %)” value (Mayaro virus (MAYV) [1]) does the source give for `Cc1ccc(C(C)C)cc1OCC(=O)Nc1ccc(Br)cc1` [Compound 6] here?
**A.** The value was 0%.

**Q.** And the CC50 (Vero cells)?
**A.** Its CC50 is 182 µM.

**Q.** Which “Antiviral screening (cell viability %)” value (Mayaro virus (MAYV) [1]) does the source give for `Cc1ccc(C(C)C)cc1OCC(=O)Nc1ccccc1F` [Compound 7] here?
**A.** Its value is 22.83%.

**Q.** And the CC50 (Vero cells)?
**A.** The CC50 was > 500 µM.

**Q.** For `Cc1ccc(C(C)C)cc1OCC(=O)Nc1ccc(F)cc1` [Compound 9], which “Viral activity, post-treatment” value (Mayaro virus (MAYV) [2]) is on record?
**A.** The value was “no reduction in viral activity”.

**Q.** What about the inhibition at 500 µM (Mayaro virus (MAYV) [3]) of the same compound?
**A.** Its inhibition at 500 µM is ~58%.

**Q.** And the “Number of lysis plaques, pretreatment of cells” value (Mayaro virus (MAYV) [4])?
**A.** Its value is “No reduction in the number of lysis plaques”.

**Q.** What about the “Reduction in the number of lysis plaques (virucidal activity)” value (Mayaro virus (MAYV) [5]; 500 μM, MAYV pre-incubated 1 h with compound) of the same compound?
**A.** The value was “approximately 40%”.

**Q.** And the “Virucidal activity (number of lysis plaques)” value (Mayaro virus (MAYV) [5]; concentrations ranging from 500 μM to 31.25 μM)?
**A.** The value was “significant reduction in the number of lysis plaques”.

**Q.** And the “Reduction in the number of lysis plaques (internalization inhibition)” value (Mayaro virus (MAYV) [6])?
**A.** The value was “about 50%”.

**Q.** What about the CC50 (Vero cells) of the same compound?
**A.** The CC50 was > 500 µM.

**Q.** What does the source list for `Cc1ccc(C(C)C)cc1OCC(=O)Nc1ccccc1` [Compound 10]?
**A.** Antiviral screening (cell viability %) (Mayaro virus (MAYV) [1]): 0%; CC50 (Vero cells): > 500 µM

**Q.** Which “Antiviral activity against MAYV” value (MAYV) does the source give for `NC(=O)c1ncn([C@@H]2O[C@H](CO)[C@@H](O)[C@H]2O)n1` [ribavirin] here?
**A.** Its value is “no antiviral activity”.
